Reference: PubChem BioAssay AID2060912 (Molecular Pharmacology Branch, DTP, NCI, 2025)

Test system: HUVEC/MSC spheroids viability
Assay: Human HUVEC/MSC cell line growth inhibition [KRAS2];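 for viability, T/C: percent of DMSO vehicle control luminescence so 100% = untreated viability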
Details: for IC50: curve of first compound; for viability, T/C: stronger effect = lower value; active = viability on the fitted dose curve at most 10% of control; inactive = the rest
Summary of the method: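 The concentration series started at or near clinical Cmax (10 microM if not known) and fell in half-log increments, alone or in combination. Cells were stromal-only spheroids of pooled-donor HUVEC and hMSC (passage </=5), with different drug plates and layout from the tumor spheroid screens.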

[1] = second compound 0.0316 µM, first compound 0.0316 µM
[2] = second compound 0.0316 µM, first compound 0.1 µM
[3] = second compound 0.0316 µM, first compound 0.316 µM
[4] = second compound 0.0316 µM, first compound 1 µM
[5] = second compound 0.0316 µM, first compound 3.16 µM
[6] = second compound 0.0316 µM, first compound 10 µM
[7] = second compound 0.1 µM, first compound 0.0316 µM
[8] = second compound 0.1 µM, first compound 0.1 µM
[9] = second compound 0.1 µM, first compound 0.316 µM
[10] = second compound 0.1 µM, first compound 1 µM
[11] = second compound 0.1 µM, first compound 3.16 µM
[12] = second compound 0.1 µM, first compound 10 µM
[13] = second compound 0.316 µM, first compound 0.0316 µM
[14] = second compound 0.316 µM, first compound 0.1 µM
[15] = second compound 0.316 µM, first compound 0.316 µM
[16] = second compound 0.316 µM, first compound 1 µM
[17] = second compound 0.316 µM, first compound 3.16 µM
[18] = second compound 0.316 µM, first compound 10 µM
[19] = second compound 1 µM, first compound 0.0316 µM
[20] = second compound 1 µM, first compound 0.1 µM
[21] = second compound 1 µM, first compound 0.316 µM
[22] = second compound 1 µM, first compound 1 µM
[23] = second compound 1 µM, first compound 3.16 µM
[24] = second compound 1 µM, first compound 10 µM
[25] = second compound 3.16 µM, first compound 0.0316 µM
[26] = second compound 3.16 µM, first compound 0.1 µM
[27] = second compound 3.16 µM, first compound 0.316 µM
[28] = second compound 3.16 µM, first compound 1 µM
[29] = second compound 3.16 µM, first compound 3.16 µM
[30] = second compound 3.16 µM, first compound 10 µM
[31] = second compound 10 µM, first compound 0.0316 µM
[32] = second compound 10 µM, first compound 0.1 µM
[33] = second compound 10 µM, first compound 0.316 µM
[34] = second compound 10 µM, first compound 1 µM
[35] = second compound 10 µM, first compound 3.16 µM
[36] = second compound 10 µM, first compound 10 µM

CC1COCCN1c1cc(-c2ccnn2C)c2ccnc(-c3ccn[nH]3)c2n1 (stereo not drawn) + COc1cc2nc(C)nc(NC(C)c3cc(N)cc(C(F)(F)F)c3)c2cc1OC1CCOC1
inactive: viability, T/C (second compound 0.0316 µM, first compound 0.00949 µM) 98.9% | viability, T/C (second compound 0.0316 µM, first compound 0.03 µM) 92.4% | viability, T/C (second compound 0.0316 µM, first compound 0.0949 µM) 86.8% | viability, T/C (second compound 0.0316 µM, first compound 0.3 µM) 75.7% | viability, T/C (second compound 0.0316 µM, first compound 0.949 µM) 55.9% | viability, T/C (second compound 0.0316 µM, first compound 3 µM) 43.9% | viability, T/C (second compound 0.1 µM, first compound 0.00949 µM) 83.2% | viability, T/C (second compound 0.1 µM, first compound 0.03 µM) 81.1% | viability, T/C (second compound 0.1 µM, first compound 0.0949 µM) 79.7% | viability, T/C (second compound 0.1 µM, first compound 0.3 µM) 80.4% | viability, T/C (second compound 0.1 µM, first compound 0.949 µM) 48.8% | viability, T/C (second compound 0.1 µM, first compound 3 µM) 46.4% | viability, T/C (second compound 0.316 µM, first compound 0.00949 µM) 82.2% | viability, T/C (second compound 0.316 µM, first compound 0.03 µM) 95% | viability, T/C (second compound 0.316 µM, first compound 0.0949 µM) 80.3% | viability, T/C (second compound 0.316 µM, first compound 0.3 µM) 79.8% | viability, T/C (second compound 0.316 µM, first compound 0.949 µM) 47.6% | viability, T/C (second compound 0.316 µM, first compound 3 µM) 52.4% | viability, T/C (second compound 1 µM, first compound 0.00949 µM) 88.3% | viability, T/C (second compound 1 µM, first compound 0.03 µM) 89.8% | viability, T/C (second compound 1 µM, first compound 0.0949 µM) 95.8% | viability, T/C (second compound 1 µM, first compound 0.3 µM) 72.1% | viability, T/C (second compound 1 µM, first compound 0.949 µM) 53.3% | viability, T/C (second compound 1 µM, first compound 3 µM) 37.3% | viability, T/C (second compound 3.16 µM, first compound 0.00949 µM) 79% | viability, T/C (second compound 3.16 µM, first compound 0.03 µM) 94.1% | viability, T/C (second compound 3.16 µM, first compound 0.0949 µM) 93.2% | viability, T/C (second compound 3.16 µM, first compound 0.3 µM) 81.7% | viability, T/C (second compound 3.16 µM, first compound 0.949 µM) 59.5% | viability, T/C (second compound 3.16 µM, first compound 3 µM) 48.2% | viability, T/C (second compound 10 µM, first compound 0.00949 µM) 63.3% | viability, T/C (second compound 10 µM, first compound 0.03 µM) 72.6% | viability, T/C (second compound 10 µM, first compound 0.0949 µM) 65.2% | viability, T/C (second compound 10 µM, first compound 0.3 µM) 60.4% | viability, T/C (second compound 10 µM, first compound 0.949 µM) 59.4% | viability, T/C (second compound 10 µM, first compound 3 µM) 59%
1.04 µM: IC50 (second compound 1 µM)
0.908 µM: IC50 (second compound 0.1 µM)
1.74 µM: IC50 (second compound 0.0316 µM)
> 3 µM: IC50 (second compound 0.316 µM) | IC50 (second compound 10 µM)
2.52 µM: IC50 (second compound 3.16 µM)

CC1OCC2(CCN(c3cnc(Sc4ccnc(N)c4Cl)c(N)n3)CC2)C1N (stereo not drawn) + COc1cc2nc(C)nc(NC(C)c3cc(N)cc(C(F)(F)F)c3)c2cc1OC1CCOC1
3.73 µM: IC50 (second compound 10 µM)
5.19 µM: IC50 (second compound 3.16 µM)
6.22 µM: IC50 (second compound 0.1 µM)
6.36 µM: IC50 (second compound 0.0316 µM)
> 10 µM: IC50 (second compound 0.316 µM)
6.15 µM: IC50 (second compound 1 µM)
inactive: viability, T/C [1] 101% | viability, T/C [2] 111% | viability, T/C [3] 91.8% | viability, T/C [4] 64.4% | viability, T/C [5] 70.6% | viability, T/C [6] 40.4% | viability, T/C [7] 115% | viability, T/C [8] 90.7% | viability, T/C [9] 76.8% | viability, T/C [10] 72.4% | viability, T/C [11] 63% | viability, T/C [12] 40.8% | viability, T/C [13] 80.7% | viability, T/C [14] 95.2% | viability, T/C [15] 88% | viability, T/C [16] 63.1% | viability, T/C [17] 60.2% | viability, T/C [18] 54.2% | viability, T/C [19] 83.6% | viability, T/C [20] 100% | viability, T/C [21] 67.5% | viability, T/C [22] 72.3% | viability, T/C [23] 57.9% | viability, T/C [24] 44.3% | viability, T/C [25] 82% | viability, T/C [26] 86.8% | viability, T/C [27] 86.9% | viability, T/C [28] 65% | viability, T/C [29] 59.2% | viability, T/C [30] 41.5% | viability, T/C [31] 68.7% | viability, T/C [32] 73.8% | viability, T/C [33] 69.8% | viability, T/C [34] 59% | viability, T/C [35] 56.7% | viability, T/C [36] 27%

CCNC(=O)CC1N=C(c2ccc(Cl)cc2)c2cc(OC)ccc2-n2c(C)nnc21 (stereo not drawn) + COc1cc2nc(C)nc(NC(C)c3cc(N)cc(C(F)(F)F)c3)c2cc1OC1CCOC1
inactive: viability, T/C [1] 89.6% | viability, T/C [2] 94% | viability, T/C [3] 94.3% | viability, T/C [4] 113% | viability, T/C [5] 114% | viability, T/C [6] 120% | viability, T/C [7] 78.7% | viability, T/C [8] 86.2% | viability, T/C [9] 89.3% | viability, T/C [10] 85.6% | viability, T/C [11] 124% | viability, T/C [12] 84.3% | viability, T/C [13] 86.4% | viability, T/C [14] 90.2% | viability, T/C [15] 105% | viability, T/C [16] 99.6% | viability, T/C [17] 89.5% | viability, T/C [18] 88.5% | viability, T/C [19] 89.8% | viability, T/C [20] 79.9% | viability, T/C [21] 73% | viability, T/C [22] 105% | viability, T/C [23] 100% | viability, T/C [24] 90% | viability, T/C [25] 73.5% | viability, T/C [26] 81.1% | viability, T/C [27] 75.9% | viability, T/C [28] 82.3% | viability, T/C [29] 84.6% | viability, T/C [30] 109% | viability, T/C [31] 60.6% | viability, T/C [32] 55.9% | viability, T/C [33] 69.5% | viability, T/C [34] 70% | viability, T/C [35] 82.1% | viability, T/C [36] 74.8%
> 10 µM: IC50 (second compound 0.0316 µM) | IC50 (second compound 0.1 µM) | IC50 (second compound 0.316 µM) | IC50 (second compound 1 µM) | IC50 (second compound 3.16 µM) | IC50 (second compound 10 µM)

Cn1nccc1Nc1nccc(-c2cc3c(s2)C(C)(C)N(CCN2CCOCC2)C3=O)n1 + COc1cc2nc(C)nc(NC(C)c3cc(N)cc(C(F)(F)F)c3)c2cc1OC1CCOC1
2.22 µM: IC50 (second compound 10 µM)
inactive: viability, T/C [1] 104% | viability, T/C [2] 124% | viability, T/C [3] 124% | viability, T/C [4] 108% | viability, T/C [5] 32.1% | viability, T/C [7] 90.2% | viability, T/C [8] 115% | viability, T/C [9] 110% | viability, T/C [10] 92.1% | viability, T/C [11] 34.4% | viability, T/C [13] 108% | viability, T/C [14] 119% | viability, T/C [15] 107% | viability, T/C [16] 95% | viability, T/C [17] 39.9% | viability, T/C [19] 85.6% | viability, T/C [20] 113% | viability, T/C [21] 113% | viability, T/C [22] 106% | viability, T/C [23] 37.8% | viability, T/C [25] 92.5% | viability, T/C [26] 111% | viability, T/C [27] 121% | viability, T/C [28] 104% | viability, T/C [29] 38.5% | viability, T/C [31] 72.5% | viability, T/C [32] 92.9% | viability, T/C [33] 93.5% | viability, T/C [34] 88.5% | viability, T/C [35] 33.6%
active: viability, T/C [6] 4.35% | viability, T/C [12] 4.06% | viability, T/C [18] 3.01% | viability, T/C [24] 7.24% | viability, T/C [30] 3.79% | viability, T/C [36] 0.79%
2.56 µM: IC50 (second compound 0.316 µM)
2.59 µM: IC50 (second compound 3.16 µM)
2.41 µM: IC50 (second compound 0.0316 µM)
2.32 µM: IC50 (second compound 0.1 µM)
2.57 µM: IC50 (second compound 1 µM)
